14 compounds from ChEMBL document CHEMBL3588860, “Synthesis and antiproliferative activity of some novel benzo-fused imidazo[1,8]naphthyridinones” (Bioorg Med Chem Lett, 2015) can be followed below.

pIC50: −log10 of the molar value.

One test has as its system HCT-116. Kind of test: Antiproliferative activity against human HCT116 cells after 72 hrs by MTT assay. In kind it is functional, cell-based. Conditions: HCT-116, 72 h. For orientation: Tetrazolium dyes change colour on reduction, which living cells bring about.
In a further test the test system is HeLa. Kind of test: Antiproliferative activity against human HeLa cells after 72 hrs by MTT assay. The test is classed as functional, cell-based.
The nature of test [1]: Antiproliferative activity against human FM3 cells after 72 hrs by MTT assay. To be noted: FM3, 72 h. In kind it is functional, cell-based.
The next test has as its system Ishikawa. As to the kind of experiment: Antiproliferative activity against human Ishikawa cells after 72 hrs by MTT assay. The test is classed as functional, cell-based.
The next test has as its system Daudi. Kind of test: Antiproliferative activity against human Daudi cells after 72 hrs by MTT assay. The test is classed as functional, cell-based.
Test [2] is described as follows: Antiproliferative activity against human MES-SA cells after 72 hrs by MTT assay. The test is classed as functional, cell-based.
Test [3] can be described thus: Antiproliferative activity against human MES-SA/Dx5 cells after 72 hrs by MTT assay. In kind it is functional, cell-based. Conditions: MES-SA/Dx5, 72 h.
The subject of a further test is MES-SA. As to the kind of experiment: Ratio of IC50 for human MES-SA/Dx5 cells to IC50 for human MES-SA cells. The test is classed as functional.

Usually pIC50 stands for the IC50 on a negative log10 scale, so that one unit is a factor of ten. A lower pIC50 goes with a high IC50. Regarding `CCN(CC)CCn1c2ccccc2c(=O)c2cc3ncn(-c4ccccc4)c3nc21`, the pIC50 is 4.89 with HCT-116; 5.14 in the test on HeLa; 5.32 in test [1]; 4.95 in the test on Ishikawa; 5.31 with Daudi; 5.28 in test [2]. For the same compound, the pIC50 in test [3] is 4.98. Besides, the “Ratio IC50” value in the test on MES-SA stood at 1.99.

Consider `COc1cccc2c1C(=O)c1c(O)c3c(c(O)c1C2=O)C[C@@](O)(C(=O)CO)C[C@@H]3O[C@H]1C[C@H](N)[C@H](O)[C@H](C)O1` [DOXORUBICIN], for which the pIC50 in the test with HCT-116 is 6.74; in the test with HeLa it was 6.47; in test [1], 6.91; in the test on Ishikawa it was 7.00; with Daudi, 6.90; in test [2] it was 7.46. For the same compound, the pIC50 in test [3] was 5.55. In addition, in the test with MES-SA, the “Ratio IC50” value amounted to 80.2.

In the case of `CCN(CC)CCn1c2ccccc2c(=O)c2cc3ncn(C4CCCC4)c3nc21`, the pIC50 with HCT-116 was 5.09; in the test on HeLa, 4.93; in test [1] it was 4.55; in the test on Ishikawa, 4.54; in the test with Daudi it was 4.97; in test [2], 4.97. Besides, in test [3], the pIC50 was 4.81. In addition, the “Ratio IC50” value with MES-SA is on record as 1.46.

With `CC(C)n1cnc2cc3c(=O)c4ccccc4n(CCO)c3nc21`, the negative logarithm of the IC50 (pIC50) was 4.39 in the test with HCT-116; 4.88 with HeLa; 4.34 in test [1]; 4.18 in the test with Ishikawa; 4.66 in the test on Daudi; 4.46 in test [2]. For the same compound, the negative logarithm of the IC50 (pIC50) in test [3] was 4.49. Further, the “Ratio IC50” value in the test with MES-SA is recorded as 0.94.

With `CC(C)n1cnc2cc3c(=O)c4ccccc4[nH]c3nc21`, the negative-log IC50 (pIC50) in the test with HCT-116 was 4.43; in the test with HeLa it was 4.53; in test [1], 4.18; in the test on Ishikawa, 4.20; with Daudi, 4.46; in test [2] it was 4.43. Further, the pIC50 in test [3] is 4.34. Further, the “Ratio IC50” value in the test on MES-SA is reported as 1.23.

Consider `O=c1c2ccccc2n(CCO)c2nc3c(cc12)ncn3C1CCCC1`, for which the negative logarithm of the IC50 (pIC50) was 4.31 in the test with HCT-116; 4.63 with HeLa; 4.18 in test [1]; 4.18 in the test on Ishikawa; 4.72 in the test with Daudi; 4.64 in test [2]. Further, in test [3], the negative-log IC50 (pIC50) is 4.65. In the test with MES-SA, the “Ratio IC50” value amounted to 0.97.

As to `CN(C)CCn1c2ccccc2c(=O)c2cc3ncn(-c4ccccc4)c3nc21`, the negative-log IC50 (pIC50) in the test with HCT-116 was 4.55; with HeLa, 4.63; in test [1] it was 4.53; in the test on Ishikawa, 4.36; in the test on Daudi, 4.48; in test [2] it was 4.33. Moreover, the negative-log IC50 (pIC50) in test [3] was 4.38. Besides, in the test with MES-SA, the “Ratio IC50” value worked out at 0.88.

In the case of `O=c1c2ccccc2[nH]c2nc3c(cc12)ncn3-c1ccccc1`, the negative-log IC50 (pIC50) is 4.14 with HCT-116; 4.56 with HeLa; 4.29 in test [1]; 4.30 with Ishikawa; 4.50 in the test on Daudi; 4.32 in test [2]. In test [3], the pIC50 is 4.46. For the same compound, the “Ratio IC50” value in the test with MES-SA was determined as 0.73.

As for `O=C1c2c(O)ccc(O)c2C(=O)c2c(NCCNCCO)ccc(NCCNCCO)c21` [MITOXANTRONE], the negative-log IC50 (pIC50) in the test with HCT-116 is 7.60; in the test on HeLa, 7.36; in test [1] it was 7.89; with Ishikawa, 8.00; in the test on Daudi it was 8.30; in test [2] it was 8.22. The same compound showed a pIC50 in test [3] of 7.14. For the same compound, the “Ratio IC50” value with MES-SA turned out to be 12.17.

In the case of `CCN(CC)CCn1c2ccccc2c(=O)c2cc3ncn(C(C)C)c3nc21`, the pIC50 in the test on HCT-116 was 4.61; in the test with HeLa, 4.67; in test [1] it was 4.30; in the test with Ishikawa, 4.20; in the test with Daudi, 4.74; in test [2] it was 4.59. This compound also gave a pIC50 in test [3] of 4.64. Moreover, the “Ratio IC50” value with MES-SA is 0.9.

Take `O=c1c2ccccc2n(CCO)c2nc3c(cc12)ncn3-c1ccccc1`: the negative-log IC50 (pIC50) in the test with HCT-116 is 4.48; with HeLa, 4.82; in test [1], 4.13; in the test on Ishikawa it was 4.00; in the test on Daudi, 4.69; in test [2], 4.29. In addition, the pIC50 in test [3] is 4.32. The “Ratio IC50” value with MES-SA is 0.93.

For the compound `CN(C)CCn1c2ccccc2c(=O)c2cc3ncn(C4CCCC4)c3nc21`, the negative logarithm of the IC50 (pIC50) in the test with HCT-116 is 4.52; in the test with HeLa, 4.54; in test [1], 4.37; with Ishikawa it was 4.41; with Daudi, 4.72; in test [2], 4.48. Moreover, in test [3], the negative-log IC50 (pIC50) was 4.60. For the same compound, the “Ratio IC50” value in the test on MES-SA stood at 0.76.

Turning to `CC(C)n1cnc2cc3c(=O)c4ccccc4n(CCN(C)C)c3nc21`, the pIC50 is 4.91 in the test with HCT-116; 5.03 in the test on HeLa; 4.77 in test [1]; 4.40 in the test on Ishikawa; 4.89 in the test on Daudi; 4.66 in test [2]. In test [3], this compound had a pIC50 of 4.79. Besides, in the test with MES-SA, the “Ratio IC50” value worked out at 0.73.

For `O=c1c2ccccc2[nH]c2nc3c(cc12)ncn3C1CCCC1`, the negative-log IC50 (pIC50) in the test on HCT-116 was 4.37; in the test on HeLa it was 4.67; in test [1], 4.52; with Ishikawa it was 4.22; in the test with Daudi, 4.81; in test [2] it was 4.70. The negative logarithm of the IC50 (pIC50) in test [3] was 4.76. The “Ratio IC50” value in the test with MES-SA was 0.86.
